According to the kinase profiling compilation of Christmann-Franck et al. (2016):

Key:
Assay in all cases: KINOMEscan competition binding
TTK (human) = TTK (human) (UniProt P33981)
PIM1 (human) = PIM1 (human) (UniProt P11309)
PIM2 (human) = PIM2 (human) (UniProt Q9P1W9)
FGFR1 (human) = FGFR1 (human) (UniProt P11362)
CAMK2D (human) = CAMK2D (human) (UniProt Q13557)
PAK7 (human) = PAK7 (human) (UniProt Q9P286)
AURKC (human) = AURKC (human) (UniProt Q9UQB9)
MKNK2 (human) = MKNK2 (human) (UniProt Q9HBH9)
PAK6 (human) = PAK6 (human) (UniProt Q9NQU5)
CAMK1 (human) = CAMK1 (human) (UniProt Q14012)
MAPK8 (human) = MAPK8 (human) (UniProt P45983)
EPHA7 (human) = EPHA7 (human) (UniProt Q15375)
FGFR2 (human) = FGFR2 (human) (UniProt P21802)
[1] = biological target: JAK1 JH1 catalytic (human) (UniProt P23458)
INSR (human) = INSR (human) (UniProt P06213)
NTRK1 (human) = NTRK1 (human) (UniProt P04629)
RPS6KA3 KD1 (human) = RPS6KA3 KD1 (human) (UniProt P51812)
CAMK2A (human) = CAMK2A (human) (UniProt Q9UQM7)
PRKACA (human) = PRKACA (human) (UniProt P17612)
PLK4 (human) = PLK4 (human) (UniProt O00444)
Sequence of PLK4 (human) (O00444 whole entry, looked up): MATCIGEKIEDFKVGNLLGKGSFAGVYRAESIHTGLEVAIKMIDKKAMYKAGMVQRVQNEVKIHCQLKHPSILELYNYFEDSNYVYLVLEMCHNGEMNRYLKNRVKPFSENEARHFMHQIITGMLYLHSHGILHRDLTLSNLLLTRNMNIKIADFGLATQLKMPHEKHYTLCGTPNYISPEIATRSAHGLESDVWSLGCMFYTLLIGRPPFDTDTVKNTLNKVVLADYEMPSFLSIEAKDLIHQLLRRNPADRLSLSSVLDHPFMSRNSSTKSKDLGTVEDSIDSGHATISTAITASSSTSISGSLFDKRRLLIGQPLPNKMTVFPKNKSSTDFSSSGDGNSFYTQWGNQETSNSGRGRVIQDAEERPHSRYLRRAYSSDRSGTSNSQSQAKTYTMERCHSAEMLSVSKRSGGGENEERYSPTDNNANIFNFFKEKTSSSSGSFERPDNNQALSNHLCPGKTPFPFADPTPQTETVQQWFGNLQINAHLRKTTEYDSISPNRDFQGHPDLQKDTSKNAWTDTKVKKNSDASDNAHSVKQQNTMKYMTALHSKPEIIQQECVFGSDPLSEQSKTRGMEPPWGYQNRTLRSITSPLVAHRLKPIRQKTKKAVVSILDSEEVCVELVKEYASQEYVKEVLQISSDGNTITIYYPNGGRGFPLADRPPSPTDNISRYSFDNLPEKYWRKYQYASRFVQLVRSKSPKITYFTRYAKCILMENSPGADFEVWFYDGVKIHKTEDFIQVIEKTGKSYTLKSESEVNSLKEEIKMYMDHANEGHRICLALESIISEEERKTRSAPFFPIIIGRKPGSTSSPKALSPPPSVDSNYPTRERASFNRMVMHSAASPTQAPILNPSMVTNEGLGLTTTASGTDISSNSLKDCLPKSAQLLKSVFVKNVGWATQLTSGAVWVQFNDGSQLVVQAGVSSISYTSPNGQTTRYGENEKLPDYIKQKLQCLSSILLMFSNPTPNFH

CDK5 (human) = CDK5 (human) (UniProt Q00535)
FLT3 (human) = FLT3 (human) (UniProt P36888)
Sequence of FLT3 (human) (P36888 whole entry, looked up): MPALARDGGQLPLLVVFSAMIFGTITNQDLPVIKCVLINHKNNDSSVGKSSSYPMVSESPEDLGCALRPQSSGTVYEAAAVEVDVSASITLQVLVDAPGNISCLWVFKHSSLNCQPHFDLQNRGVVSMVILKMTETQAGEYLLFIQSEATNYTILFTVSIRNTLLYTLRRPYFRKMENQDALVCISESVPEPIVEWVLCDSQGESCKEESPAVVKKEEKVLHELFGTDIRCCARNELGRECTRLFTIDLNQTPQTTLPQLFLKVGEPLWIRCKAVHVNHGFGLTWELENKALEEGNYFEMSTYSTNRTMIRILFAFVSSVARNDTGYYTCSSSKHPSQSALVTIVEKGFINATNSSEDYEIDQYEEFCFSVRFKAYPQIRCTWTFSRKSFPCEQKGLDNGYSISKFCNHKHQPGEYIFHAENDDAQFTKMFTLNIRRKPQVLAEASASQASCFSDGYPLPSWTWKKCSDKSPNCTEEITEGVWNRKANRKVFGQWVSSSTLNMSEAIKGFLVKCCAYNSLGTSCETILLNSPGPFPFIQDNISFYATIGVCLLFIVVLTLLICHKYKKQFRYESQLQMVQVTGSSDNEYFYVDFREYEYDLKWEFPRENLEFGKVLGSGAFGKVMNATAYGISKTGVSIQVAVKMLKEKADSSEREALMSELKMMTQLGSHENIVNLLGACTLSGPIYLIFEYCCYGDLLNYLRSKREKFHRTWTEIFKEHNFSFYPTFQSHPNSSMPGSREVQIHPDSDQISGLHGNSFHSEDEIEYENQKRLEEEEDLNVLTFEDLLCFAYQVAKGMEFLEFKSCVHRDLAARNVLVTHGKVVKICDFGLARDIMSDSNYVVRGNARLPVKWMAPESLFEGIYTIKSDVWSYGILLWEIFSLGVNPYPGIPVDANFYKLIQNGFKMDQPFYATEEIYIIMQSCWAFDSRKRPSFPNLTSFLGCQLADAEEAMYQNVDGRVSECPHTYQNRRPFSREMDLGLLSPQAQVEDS

RPS6KA5 KD1 (human) = RPS6KA5 KD1 (human) (UniProt O75582)
CAMK2G (human) = CAMK2G (human) (UniProt Q13555)
PDGFRB (human) = PDGFRB (human) (UniProt P09619)
AURKA (human) = AURKA (human) (UniProt O14965)
KDR (human) = KDR (human) (UniProt P35968)
FGR (human) = FGR (human) (UniProt P09769)
EPHA2 (human) = EPHA2 (human) (UniProt P29317)
PRKAA1 (human) = PRKAA1 (human) (UniProt Q13131)
CAMKK1 (human) = CAMKK1 (human) (UniProt Q8N5S9)
Sequence of CAMKK1 (human) (Q8N5S9 whole entry, looked up): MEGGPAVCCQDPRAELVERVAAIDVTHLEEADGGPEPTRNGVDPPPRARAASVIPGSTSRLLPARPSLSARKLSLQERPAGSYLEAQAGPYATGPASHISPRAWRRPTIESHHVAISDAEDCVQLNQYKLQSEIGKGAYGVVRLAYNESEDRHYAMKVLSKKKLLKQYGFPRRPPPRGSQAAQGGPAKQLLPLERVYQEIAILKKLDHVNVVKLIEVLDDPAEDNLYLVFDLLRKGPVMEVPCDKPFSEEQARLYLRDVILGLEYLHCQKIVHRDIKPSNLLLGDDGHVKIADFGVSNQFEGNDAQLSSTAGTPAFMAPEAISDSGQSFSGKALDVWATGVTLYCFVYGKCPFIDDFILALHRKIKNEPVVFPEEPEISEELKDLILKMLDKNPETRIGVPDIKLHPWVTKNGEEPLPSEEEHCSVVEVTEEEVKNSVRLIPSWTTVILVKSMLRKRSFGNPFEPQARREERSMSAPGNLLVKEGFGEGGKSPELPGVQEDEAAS

FGFR3 (human) = FGFR3 (human) (UniProt P22607)
MAPK12 (human) = MAPK12 (human) (UniProt P53778)
FLT4 (human) = FLT4 (human) (UniProt P35916)
PAK4 (human) = PAK4 (human) (UniProt O96013)
MAPK10 (human) = MAPK10 (human) (UniProt P53779)
DAPK2 (human) = DAPK2 (human) (UniProt Q9UIK4)
CSNK1G1 (human) = CSNK1G1 (human) (UniProt Q9HCP0)
LIMK1 (human) = LIMK1 (human) (UniProt P53667)
EPHA4 (human) = EPHA4 (human) (UniProt P54764)
CAMK2B (human) = CAMK2B (human) (UniProt Q13554)
KIT (human) = KIT (human) (UniProt P10721)
MAPK9 (human) = MAPK9 (human) (UniProt P45984)
MAPK11 (human) = MAPK11 (human) (UniProt Q15759)
RIPK2 (human) = RIPK2 (human) (UniProt O43353)
Sequence of RIPK2 (human) (O43353 whole entry, looked up): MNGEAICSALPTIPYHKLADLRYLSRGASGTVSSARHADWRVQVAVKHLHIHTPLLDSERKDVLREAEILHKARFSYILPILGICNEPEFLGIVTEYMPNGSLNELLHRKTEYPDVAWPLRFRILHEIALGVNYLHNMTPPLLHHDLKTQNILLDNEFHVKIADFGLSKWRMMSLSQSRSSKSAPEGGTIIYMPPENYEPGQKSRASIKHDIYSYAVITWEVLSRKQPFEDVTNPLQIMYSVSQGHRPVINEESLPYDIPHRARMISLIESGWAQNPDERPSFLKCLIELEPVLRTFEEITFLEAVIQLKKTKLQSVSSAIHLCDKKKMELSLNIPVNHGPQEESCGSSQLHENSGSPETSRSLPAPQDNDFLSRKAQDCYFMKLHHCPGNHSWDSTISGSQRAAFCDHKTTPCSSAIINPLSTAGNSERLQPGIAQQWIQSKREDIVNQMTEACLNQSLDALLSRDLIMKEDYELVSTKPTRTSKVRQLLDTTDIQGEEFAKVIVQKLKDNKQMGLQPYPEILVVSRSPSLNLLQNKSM

CDK2 (human) = CDK2 (human) (UniProt P24941)
NEK6 (human) = NEK6 (human) (UniProt Q9HC98)
NEK9 (human) = NEK9 (human) (UniProt Q8TD19)
MAPK14 (human) = MAPK14 (human) (UniProt Q16539)
STK16 (human) = STK16 (human) (UniProt O75716)
Sequence of STK16 (human) (O75716 whole entry, looked up): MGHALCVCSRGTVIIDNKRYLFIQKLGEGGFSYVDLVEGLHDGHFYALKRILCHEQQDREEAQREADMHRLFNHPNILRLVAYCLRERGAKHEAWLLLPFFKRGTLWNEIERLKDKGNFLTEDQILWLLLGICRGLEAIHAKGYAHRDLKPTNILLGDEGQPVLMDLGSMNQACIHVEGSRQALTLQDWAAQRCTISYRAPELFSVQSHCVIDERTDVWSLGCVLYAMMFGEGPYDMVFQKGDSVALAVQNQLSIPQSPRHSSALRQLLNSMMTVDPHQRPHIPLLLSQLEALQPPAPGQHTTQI

PTK6 (human) = PTK6 (human) (UniProt Q13882)
MAP3K5 (human) = MAP3K5 (human) (UniProt Q99683)

Measured: Kd

Sequence of TTK (human) (P33981 whole entry, looked up): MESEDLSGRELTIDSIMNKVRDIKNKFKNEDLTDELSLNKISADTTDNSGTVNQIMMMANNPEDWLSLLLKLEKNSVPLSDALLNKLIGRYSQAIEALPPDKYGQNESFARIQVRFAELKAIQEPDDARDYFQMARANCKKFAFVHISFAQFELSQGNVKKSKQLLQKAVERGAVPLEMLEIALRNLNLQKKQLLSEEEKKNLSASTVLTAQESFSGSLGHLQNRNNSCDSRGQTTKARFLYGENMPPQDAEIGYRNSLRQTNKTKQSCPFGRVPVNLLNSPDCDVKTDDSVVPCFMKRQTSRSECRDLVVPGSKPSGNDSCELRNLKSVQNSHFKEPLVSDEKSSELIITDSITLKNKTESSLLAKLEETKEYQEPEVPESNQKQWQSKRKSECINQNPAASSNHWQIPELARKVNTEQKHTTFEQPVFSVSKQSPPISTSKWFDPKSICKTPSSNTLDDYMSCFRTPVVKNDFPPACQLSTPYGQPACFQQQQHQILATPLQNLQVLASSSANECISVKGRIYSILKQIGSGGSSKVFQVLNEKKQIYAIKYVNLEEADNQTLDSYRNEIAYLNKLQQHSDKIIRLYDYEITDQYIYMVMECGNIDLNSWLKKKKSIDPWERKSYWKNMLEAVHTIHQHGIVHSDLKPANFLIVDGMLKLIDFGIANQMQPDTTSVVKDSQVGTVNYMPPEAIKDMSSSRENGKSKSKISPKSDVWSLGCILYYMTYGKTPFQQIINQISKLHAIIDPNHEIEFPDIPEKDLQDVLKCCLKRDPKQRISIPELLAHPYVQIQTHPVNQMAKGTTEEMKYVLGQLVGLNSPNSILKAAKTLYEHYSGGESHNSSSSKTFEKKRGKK
Sequence of FGFR1 (human) (P11362 whole entry, looked up): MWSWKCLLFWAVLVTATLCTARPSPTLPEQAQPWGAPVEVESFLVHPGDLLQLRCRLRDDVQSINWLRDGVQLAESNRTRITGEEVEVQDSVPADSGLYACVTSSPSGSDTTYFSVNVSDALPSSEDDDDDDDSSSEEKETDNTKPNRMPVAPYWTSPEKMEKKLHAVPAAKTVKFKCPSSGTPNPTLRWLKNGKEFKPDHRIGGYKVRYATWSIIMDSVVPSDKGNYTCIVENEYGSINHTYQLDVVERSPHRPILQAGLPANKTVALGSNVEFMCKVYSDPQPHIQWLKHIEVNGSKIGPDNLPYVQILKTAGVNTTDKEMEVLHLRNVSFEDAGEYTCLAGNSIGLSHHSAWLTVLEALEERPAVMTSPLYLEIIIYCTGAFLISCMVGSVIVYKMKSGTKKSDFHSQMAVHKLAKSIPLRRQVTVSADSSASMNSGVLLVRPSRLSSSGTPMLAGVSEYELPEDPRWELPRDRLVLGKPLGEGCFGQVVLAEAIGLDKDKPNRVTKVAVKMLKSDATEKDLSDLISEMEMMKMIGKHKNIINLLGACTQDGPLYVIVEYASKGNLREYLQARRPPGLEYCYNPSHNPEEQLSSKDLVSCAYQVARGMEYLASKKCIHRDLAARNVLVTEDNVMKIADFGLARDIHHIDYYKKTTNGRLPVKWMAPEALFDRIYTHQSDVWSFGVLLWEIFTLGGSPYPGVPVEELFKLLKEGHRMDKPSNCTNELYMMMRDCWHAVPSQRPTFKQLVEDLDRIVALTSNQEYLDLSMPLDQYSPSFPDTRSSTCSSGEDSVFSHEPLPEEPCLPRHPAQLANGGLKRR

CS(=O)c1ccc(-c2nc(-c3ccc(F)cc3)c(-c3ccncc3)[nH]2)cc1 (stereo not drawn)
> 10 µM: TTK (human)

CCOc1cc2ncc(C#N)c(Nc3ccc(F)c(Cl)c3)c2cc1NC(=O)/C=C/CN(C)C
> 10 µM: all assays above
